From patent publication US7109296B2, “Human 5-HT3-C protein” (Ortho-McNeil Pharmaceutical, Inc., priority 1999, dated 2006)
Where a SMILES comes first, the peptide text is derived from it.

Assays:
Format in all cases: cell-based
[1] = target: T1, human 5-HT3-C (Homo sapiens, UniProt Q8WXA8); experiment: Two-electrode voltage clamp, Xenopus oocytes injected with 5-HT3-C cRNA alone; conditions: for sensitivity of oocytes to neuroactive compound: >100 μM, only 5-HT3-C cRNA (33.5 ng), n=5
T1 construct: Characterization of the Function of Protein Encoded by p5HT3CR in Xenopus oocvtes; expressed in transfected cells; host or cells: Xenopus laevis oocytes injected with in vitro transcribed cRNA (pGEM HE)
T1 sequence (Q8WXA8 28-447): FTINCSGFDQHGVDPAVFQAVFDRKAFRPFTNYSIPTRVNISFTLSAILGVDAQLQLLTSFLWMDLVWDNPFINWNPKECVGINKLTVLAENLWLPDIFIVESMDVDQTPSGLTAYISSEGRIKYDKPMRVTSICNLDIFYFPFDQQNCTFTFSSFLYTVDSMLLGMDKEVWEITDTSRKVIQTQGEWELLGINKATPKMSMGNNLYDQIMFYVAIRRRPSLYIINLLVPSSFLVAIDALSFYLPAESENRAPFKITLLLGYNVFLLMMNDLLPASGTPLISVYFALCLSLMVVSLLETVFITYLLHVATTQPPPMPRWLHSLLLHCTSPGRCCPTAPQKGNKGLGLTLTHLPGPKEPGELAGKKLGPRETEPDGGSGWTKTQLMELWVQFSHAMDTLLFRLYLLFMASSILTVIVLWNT
Description: Characterization of the Function of Protein Encoded by p5HT3CR in Xenopus oocvtes Xenopus laevis oocytes were prepared and injected using standard methods previously described and known in the art (Fraser et al., 1993). Ovarian lobes from adult female Xenopus laevis (Nasco, Fort Atkinson, Wis.) were teased apart, rinsed several times in nominally Ca-free saline containing (in mM): NaCl 82.5, KCl 2.5, MgCl2 1, HEPES 5, adjusted to pH 7.0 with NaOH(OR-2), and gently shaken in OR-2 containing 0.2% collagenase Type 1 (ICN Biomedicals, Aurora, Ohio) for 2–5 hours. When approximately 50% of the follicular layers were removed, Stage V and VI oocytes were selected and rinsed in media consisting of 75% OR-2 and 25% ND-96. The ND-96 contained (in mM): NaCl 100, KCl 2, MgCl2 1, CaCl2 1.8, HEPES 5, Na pyruvate 2.5, gentamicin (50 ug/ml), adjusted to pH 7.0 with NaOH. […] For in vitro transcription, pGEM HE (Liman et al., 1992) containing human 5-HT3-A (Genbank D49394) or 5-HT3-C cDNA was linearized with NheI and transcribed with T7 RNA polymerase (Stratagene) in the presence of the cap analog m7G(5′)ppp(5′)G. The synthesized cRNA was purified with a Sephadex G-50 spin column. […] Control oocytes were injected with 50 nl of water. Oocytes were incubated for 2–14 days in ND-96 before analysis for expression of the human 5-HT3-C. Incubations and collagenase digestion were carried out at room temperature. Injected oocytes were maintained in 48 well cell culture clusters (Costar, Cambridge, Mass.) at 18° C. Whole cell agonist-induced currents were measured 1–14 days after injection with a conventional two-electrode voltage clamp (GeneClamp500, Axon Instruments, Foster City, Calif.) using standard methods previously described and known in the art (Dascal, 1987). The microelectrodes were filled with 3 M KCl, which had resistances of 1 and 2 MΩ. Cells were continuously perfused with ND96 at 10 ml/min at room temperature unless indicated. Membrane voltage was clamped at −70 mV unless indicated.

[2] = target: T2, 5-HT3-C together with nicotinic ACh receptor subunits β1, β2 and β3 (Homo sapiens, UniProt Q8WXA8); experiment: Two-electrode voltage clamp, oocytes injected with 5-HT3-C together with nicotinic ACh receptor subunits β1, β2 and β3; conditions: >100 μM; 5-HT3-C with β1, β2 and β3 (0.2–0.25 ng); n=5;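 note: oocytes expressing the subunits for 2–14 days, voltage-clamped at −70 mV under continuous ND96 perfusion at room temperature, with water-injected oocytes serving as controls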
T2 construct: Characterization of the Function of Protein Encoded by p5HT3CR in Xenopus oocvtes; expressed in transfected cells; host or cells: Xenopus laevis oocytes injected with cRNA
T2 sequence (Q8WXA8 28-447): T1 sequence (Q8WXA8 28-447)

[3] = target: T3, 5-HT3-C together with nicotinic ACh receptor a6 subunit (Homo sapiens, UniProt Q15825+Q8WXA8); experiment: Two-electrode voltage clamp, oocytes injected with 5-HT3-C together with nicotinic ACh receptor α6 subunit; conditions: 500 μM; eight days after injection; 5-HT3-C 0.67 ng, a6 1 ng/oocyte
T3 construct: Characterization of the Function of Protein Encoded by p5HT3CR in Xenopus oocvtes; expressed in transfected cells; host or cells: Xenopus laevis oocytes injected with cRNA
T3 sequence (Q15825 26-494, one chain of several): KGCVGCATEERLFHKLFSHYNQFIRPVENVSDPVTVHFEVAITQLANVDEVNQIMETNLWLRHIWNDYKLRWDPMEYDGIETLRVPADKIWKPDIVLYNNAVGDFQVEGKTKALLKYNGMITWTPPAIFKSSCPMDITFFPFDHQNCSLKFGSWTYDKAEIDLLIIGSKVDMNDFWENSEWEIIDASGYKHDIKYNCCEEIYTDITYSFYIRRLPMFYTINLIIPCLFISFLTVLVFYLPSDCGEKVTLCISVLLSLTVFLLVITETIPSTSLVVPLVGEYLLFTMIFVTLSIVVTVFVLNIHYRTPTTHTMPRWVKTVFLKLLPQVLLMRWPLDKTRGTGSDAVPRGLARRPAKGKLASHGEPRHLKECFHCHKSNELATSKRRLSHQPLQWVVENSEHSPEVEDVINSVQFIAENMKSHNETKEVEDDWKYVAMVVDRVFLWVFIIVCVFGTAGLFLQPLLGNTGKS
Description: Characterization of the Function of Protein Encoded by p5HT3CR in Xenopus oocvtes Xenopus laevis oocytes were prepared and injected using standard methods previously described and known in the art (Fraser et al., 1993). Ovarian lobes from adult female Xenopus laevis (Nasco, Fort Atkinson, Wis.) were teased apart, rinsed several times in nominally Ca-free saline containing (in mM): NaCl 82.5, KCl 2.5, MgCl2 1, HEPES 5, adjusted to pH 7.0 with NaOH(OR-2), and gently shaken in OR-2 containing 0.2% collagenase Type 1 (ICN Biomedicals, Aurora, Ohio) for 2–5 hours. When approximately 50% of the follicular layers were removed, Stage V and VI oocytes were selected and rinsed in media consisting of 75% OR-2 and 25% ND-96. The ND-96 contained (in mM): NaCl 100, KCl 2, MgCl2 1, CaCl2 1.8, HEPES 5, Na pyruvate 2.5, gentamicin (50 ug/ml), adjusted to pH 7.0 with NaOH. […] For in vitro transcription, pGEM HE (Liman et al., 1992) containing human 5-HT3-A (Genbank D49394) or 5-HT3-C cDNA was linearized with NheI and transcribed with T7 RNA polymerase (Stratagene) in the presence of the cap analog m7G(5′)ppp(5′)G. The synthesized cRNA was purified with a Sephadex G-50 spin column. Oocytes were injected with 50 nl of the human serotonin 5-HT3-A receptor with or without the 5-HT3-C RNA (0.02 and 0.002–0.2 ng each) or other channel or receptor subunit. Control oocytes were injected with 50 nl of water. Oocytes were incubated for 2–14 days in ND-96 before analysis for expression of the human 5-HT3-C. Incubations and collagenase digestion were carried out at room temperature. Injected oocytes were maintained in 48 well cell culture clusters (Costar, Cambridge, Mass.) at 18° C. Whole cell agonist-induced currents were measured 1–14 days after injection with a conventional two-electrode voltage clamp (GeneClamp500, Axon Instruments, Foster City, Calif.) using standard methods previously described and known in the art (Dascal, 1987). The microelectrodes were filled with 3 M KCl, which had resistances of 1 and 2 MΩ. […]

[4] = 10 μM, oocytes injected with 33.3 ng 5-HT3-C cRNA

Row | SMILES | sensitivity of oocytes to neuroactive compound [1] | sensitivity of oocytes to neuroactive compound [2] | further results
1 | NCC(=O)O [glycine] | insensitive | insensitive | effect of agonist (agonist-induced current) ([1]; 100 M, oocytes injected with 33.3 ng 5-HT3-C cRNA): No effect
2 | NC(=O)[C@@H](N)Cc1c[nH]c2ccccc12 [tryptophanamide] | insensitive | insensitive | 
3 | NCCc1ccc(O)cc1 [tyramine] | insensitive | insensitive | 
4 | O=C(O)Cc1c[nH]c2ccc(O)cc12 [5-hydroxyindolacetic acid] | insensitive | insensitive | 
5 | NCCCC(=O)O [GABA] | insensitive | insensitive | effect of agonist (agonist-induced current) ([1]; >30 μM, oocytes injected with 33.3 ng 5-HT3-C cRNA): No effect
6 | COc1ccc2[nH]cc(CCNC(C)=O)c2c1 [melatonin] | insensitive | insensitive | 
7 | NCCc1c[nH]cn1 [histamine] | insensitive | insensitive | effect of agonist (agonist-induced current) [1, 4]: No effect
8 | CC(=O)N[C@@H](CS)C(=O)O [N-acetyl-L-cysteine] | insensitive | insensitive | 
9 | NCCc1c[nH]c2ccccc12 [tryptamine] | insensitive | insensitive | 
10 | NC/C=C\C(=O)O [cis-4 aminocrotonic acid] | insensitive | insensitive | 
11 | O=C(O)c1cc2cc(O)ccc2[nH]1 [5-hydroxyindole 2-carboxylic acid] | insensitive | insensitive | 
12 | CC(=O)NCCc1c[nH]c2ccc(O)cc12 [N-acetyl serotonin] | insensitive | insensitive | 
13 | N[C@@H]1CONC1=O [d-cycloserine] | insensitive | insensitive | 
14 | N=C(N)NCCCCN [agmatine] | insensitive | insensitive | 
15 | N[C@@H](CCC(=O)O)C(=O)O [glutamate] | insensitive | insensitive | 
16 | NCCc1ccccc1 [β-phenylethylamine] | insensitive | insensitive | 
17 | NCC(O)c1ccc(O)cc1 (stereo not shown) [octopamine] | insensitive | insensitive | 
18 | NCCc1ccc(O)c(O)c1 [DA, dopamine] | insensitive | insensitive | effect of agonist (agonist-induced current) ([1]; 100 μM, oocytes injected with 33.5 ng 5-HT3-C): No effect
19 | NC[C@H](O)c1ccc(O)c(O)c1 [norepinephrine] | insensitive | insensitive | 
20 | NCCS(=O)(=O)O [taurine] | insensitive | insensitive | 
21 | CC(=O)OCC[N+](C)(C)C [ACh] | insensitive | insensitive | effect of agonist (agonist-induced current) [1, 4]: No effect; effect of agonist (agonist-induced current) ([1]; 500 μM, oocytes injected with 33.5 ng 5-HT3-C): No effect; responsiveness of oocytes to agonist [3]: not responsive
22 | NC(=O)Cc1c[nH]c2ccc(O)cc12 [5-hydroxyindole 3-acetamide] | insensitive | insensitive | 
23 | CC(=O)N[C@@H](CC(=O)O)C(=O)N[C@@H](CCC(=O)O)C(=O)O [acetyl-aspartyl-L-glutamic acid] (Ac-Asp-Glu-OH) | insensitive | insensitive | 
24 | N[C@H](CC(=O)O)C(=O)O [L-aspartate, L- and D-aspartate] | insensitive | insensitive | 
25 | NCCC(=O)O [β-alanine] | insensitive | insensitive | 
26 | N[C@@H](Cc1c[nH]c2ccccc12)C(=O)O [tryptophan] | insensitive | insensitive | 
27 | COc1cc2c(CCNC(C)=O)c[nH]c2cc1O [6-hydroxymelatonin] | insensitive | insensitive | 
